The source of these data is US9662314B2, “Compounds and methods for the treatment of muscular disease, and related screening methods” (Tufts Medical Center, Inc., priority 2011, dated 2017).

Series [1] concerns Smooth mutant Drosophila flies (sm homozygotes, that develop muscle dystrophy). Put plainly: Survival of adult smooth mutant Drosophila flies treated with ascochlorin (FIG. 1). Type of series: in vivo. To be noted: adult sm homozygote flies on paper discs, 1 mM solution in 9% sucrose, 10% ethanol, throughout lifespan, vs vehicle alone. The procedure: Smooth mutant Drosophila flies (sm homozygotes, that develop muscle dystrophy) were maintained on paper discs soaked either with ascochlorin (Santa Cruz Biotechnology, 1 mM solution in 9% sucrose, 10% ethanol), or with vehicle alone. The treatment was maintained throughout the lifespan of the organism. Unaffected control siblings (sm heterozygotes) were maintained on vehicle. The number of dead flies was recorded daily, and percent survival was plotted as a function of time in days.

The test system of the next series is BIN1. To be noted: U2OS cells, third most up-regulated protein (Kang et al. 2006); cited from earlier work.
For series [2] the following is noted: literature statement; cited from earlier work.
Another series relates to splicing factor hnRNP L. Conditions: U2OS cells, most up-regulated protein (Kang et al. 2006); cited from earlier work.
For series [3], the system named is human osteosarcoma cells (U2OS). Conditions: proteome analysis (Kang et al. 2006); cited from earlier work.
The test system of another series is mammary carcinoma. Conditions: intraperitoneal administration, murine mammary carcinoma (Nakajima et al., 2007); cited from earlier work.
Series [4] concerns vascular endothelial growth factor (VEGF). To be noted: Jeong et al. 2011; cited from earlier work.
For series [5], the system named is glucose transporter 1 (GLUT-1). To be noted: Jeong et al. 2011; cited from earlier work.

As to `CC(/C=C/[C@@]1(C)[C@H](C)CCC(=O)[C@@H]1C)=C\Cc1c(O)c(Cl)c(C)c(C=O)c1O` [ascochlorin], the survival time entry in series [1] was “prolonged survival time”. Further, the BIN1 up-regulation in the series with BIN1 is reported as 10 ×. Also, the toxicity result in series [2] is reported as “non-toxic”. The “hnRNP L up-regulation” value in the series with splicing factor hnRNP L was 12 ×. In series [3], the “increase in the levels of three proteins” value is given as no less than 10 fold. In the series with mammary carcinoma, the cancer growth entry is recorded as “significantly suppressed cancer growth” and the survival result is “prolonged survival”.
In the case of `COc1c(Cl)c(C)c(C=O)c(O)c1C/C=C(C)/C=C/[C@@]1(C)[C@H](C)CCC(=O)[C@@H]1C` [MAC, 4-O-methylascochlorin], the “expression of VEGF” value in series [4] was “increases the expression”. For the same molecule, the “expression of GLUT-1” value in series [5] is “increases the expression”.
As for `C/C(=C\Cc1c(O)c(Cl)c(C)c(C=O)c1O)CC/C=C(\C)[C@@H]1CC(=O)C(C)(C)O1` [ascofuranone], in series [2], the toxicity result is on record as “non-toxic”.
